From patent US11919902B2, “Aryl-bipyridine amine derivatives as phosphatidylinositol phosphate kinase inhibitors” (HiberCell, Inc., priority 2017, dated 2024)

What was measured:
[1] = target: T1, PIP4K2A (full length protein, SignalChem) (Homo sapiens, UniProt P48426); experiment: Kinase Assay PIP4K2 A (Sprint); ADP-Glo biochemical assay; conditions: Table 2; compounds listed under IC50 range headings
T1 construct: 4 nM PIP4K2A (full length protein, SignalChem); purchased SignalChem
T1 sequence (P48426 1-406): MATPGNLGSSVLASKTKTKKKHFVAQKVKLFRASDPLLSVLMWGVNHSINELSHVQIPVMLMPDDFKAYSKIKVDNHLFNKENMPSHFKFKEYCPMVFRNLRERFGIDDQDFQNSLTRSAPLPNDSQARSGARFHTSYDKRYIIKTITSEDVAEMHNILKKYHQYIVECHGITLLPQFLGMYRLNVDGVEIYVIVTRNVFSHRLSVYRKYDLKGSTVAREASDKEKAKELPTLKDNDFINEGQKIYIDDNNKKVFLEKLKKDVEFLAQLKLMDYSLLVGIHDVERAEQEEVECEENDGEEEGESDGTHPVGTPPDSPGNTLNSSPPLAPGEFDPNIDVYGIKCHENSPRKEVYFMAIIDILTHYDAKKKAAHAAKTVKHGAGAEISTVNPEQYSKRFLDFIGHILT
Procedure, shortened: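 ADP-Glo luminescence detected ADP after a 1 h RT reaction started with 60 μM ATP solution. Before that, full-length PIP4K2A (4 nM in mix) with 100 μM PI(5)P diC8 was pre-incubated 15 min with compounds in MOPS buffer pH 7.2, 25 mM MgCl2, 0.005% Tween 20. IC50 derived from % inhibition relative to DMSO over 10 three-fold concentrations.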

[2] = target: T2, GST tagged PIP4KtypeIIB (Homo sapiens, UniProt P78356); experiment: Trans-FI P kinase assay PIP4K2B (PIP4KtypeIIB inhibition assay); assay type: biochemical; conditions: Table 4; compounds listed under IC50 range headings; 100 uM GTP, 5 nM PIP4KIIB; read-out: Trans-FI P kinase assays: PIP4K2B IC50
T2 construct: made in house; host or cells: E. coli
T2 sequence (P78356 1-416): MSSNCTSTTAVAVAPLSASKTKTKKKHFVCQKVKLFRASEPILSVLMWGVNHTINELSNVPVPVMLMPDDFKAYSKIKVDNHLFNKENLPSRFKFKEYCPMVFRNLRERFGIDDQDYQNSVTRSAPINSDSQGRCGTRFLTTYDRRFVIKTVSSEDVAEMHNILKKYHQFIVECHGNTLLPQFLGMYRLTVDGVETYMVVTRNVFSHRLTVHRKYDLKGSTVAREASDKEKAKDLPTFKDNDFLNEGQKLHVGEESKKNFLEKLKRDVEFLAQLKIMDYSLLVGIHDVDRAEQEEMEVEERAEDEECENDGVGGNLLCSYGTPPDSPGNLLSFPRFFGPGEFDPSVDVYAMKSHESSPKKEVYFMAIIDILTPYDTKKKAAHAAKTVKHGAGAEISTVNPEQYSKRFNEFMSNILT
Procedure, shortened: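 Transcreener FI fluorescence, converted to GDP by calibration, tracked product from 5 nM E. coli-expressed GST-PIP4KIIB acting on 80 uM PI5P (DOPE carrier) with 100 uM GTP. Compound (top 4.8 uM final, 5% DMSO) was preincubated 1 h at 27 C before the 2 h reaction; IC50 fitted from residual activity.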

IC50 [1] [nM] | IC50 [2] [nM] | Compound
2500 to 5000 | 1 to 10 | CC(C)Cn1cnnc1-c1ccc(-c2cncc(-c3ccnc4c3cc3n4CCN(c4ccccn4)C3=O)c2)cc1 [Example 367, 4-(5-(4-(4-isobutyl-4H-1,2,4-triazol-3-yl)phenyl)pyridin-3-yl)-7-(pyridin-2-yl)-8,9-dihydropyrido[3′,2′:4,5]pyrrolo[1,2-a]pyrazin-6(7H)-one]
100 to 1000 | 10 to 100 | CC(C)Cn1cnnc1-c1ccc(-c2cncc(-c3ccnc4c3cc3n4CCN(C)C3=O)c2)cc1 [Example 383, 4-(5-(4-(4-isobutyl-4H-1,2,4-triazol-3-yl)phenyl)pyridin-3-yl)-7-methyl-8,9-dihydropyrido[3′,2′:4,5]pyrrolo[1,2-a]pyrazin-6(7H)-one]
100 to 1000 | 1 to 10 | CC(C)n1cnnc1-c1ccc(-c2cc(-c3ccnc4oc(C(=O)NCC5CC5)cc34)cnc2N)cc1 [Example 392, 4-(6-amino-5-(4-(4-isopropyl-4H-1,2,4-triazol-3-yl)phenyl)pyridin-3-yl)-N-(cyclopropylmethyl)furo[2,3-b]pyridine-2-carboxamide]
100 to 1000 | 100 to 1000 | CN1CCn2c(cc3c(-c4cncc(-c5ccc(C(=O)N6CCC(C)(C)CC6)cc5)c4)ccnc32)C1=O [Example 335, 4-(5-(4-(4,4-dimethylpiperidine-1-carbonyl)phenyl)pyridin-3-yl)-7-methyl-8,9-dihydropyrido[3′,2′:4,5]pyrrolo[1,2-a]pyrazin-6(7H)-one]
100 to 1000 | 1 to 10 | CC(C)n1cnnc1-c1ccc(-c2cncc(-c3ccnc4c3cc3n4CCN(Cc4ccncc4)C3=O)c2)cc1 [Example 385, 4-(5-(4-(4-isopropyl-4H-1,2,4-triazol-3-yl)phenyl)pyridin-3-yl)-7-(pyridin-4-ylmethyl)-8,9-dihydropyrido[3′,2′:4,5]pyrrolo[1,2-a]pyrazin-6(7H)-one]
100 to 1000 | 10 to 100 | CC(C)n1cnnc1-c1ccc(-c2cncc(-c3ccnc4[nH]c(C(=O)NCc5cccnc5)cc34)c2)cc1 [Example 378, 4-(5-(4-(4-isopropyl-4H-1,2,4-triazol-3-yl)phenyl)pyridin-3-yl)-N-(pyridin-3-ylmethyl)-1H-pyrrolo[2,3-b]pyridine-2-carboxamide]
5 to 100 | 1 to 10 | CN1CCn2c(cc3c(-c4cncc(-c5ccc(-c6nncn6C(C)(C)C)cc5)c4)ccnc32)C1=O [Example 377, 4-(5-(4-(4-(tert-butyl)-4H-1,2,4-triazol-3-yl)phenyl)pyridin-3-yl)-7-methyl-8,9-dihydropyrido[3′,2′:4,5]pyrrolo[1,2-a]pyrazin-6(7H)-one]
1000 to 2500 | 100 to 1000 | CN1CCn2c(cc3c(-c4cncc(-c5ccc(N6CCC(C)(C)CC6=O)cc5)c4)ccnc32)C1=O [Example 342, 4-(5-(4-(4,4-dimethyl-2-oxopiperidin-1-yl)phenyl)pyridin-3-yl)-7-methyl-8,9-dihydropyrido[3′,2′:4,5]pyrrolo[1,2-a]pyrazin-6(7H)-one]
100 to 1000 | 1 to 10 | CC(C)n1nnnc1-c1ccc(-c2cncc(-c3ccnc4c3cc3n4CCN(C)C3=O)c2)cc1 [Example 387, 4-(5-(4-(1-isopropyl-1H-tetrazol-5-yl)phenyl)pyridin-3-yl)-7-methyl-8,9-dihydropyrido[3′,2′:4,5]pyrrolo[1,2-a]pyrazin-6(7H)-one]
1000 to 2500 | 10 to 100 | CN1CCn2c(cc3c(-c4cncc(-c5ccc(-c6nncn6C6CCC6)cc5)c4)ccnc32)C1=O [Example 365, 4-(5-(4-(4-cyclobutyl-4H-1,2,4-triazol-3-yl)phenyl)pyridin-3-yl)-7-methyl-8,9-dihydropyrido[3′,2′:4,5]pyrrolo[1,2-a]pyrazin-6(7H)-one]
1000 to 2500 | 100 to 1000 | Cc1c[nH]c2nccc(-c3cncc(-c4ccc(N5CCCC5=O)cc4)c3)c12 [Example 323, 1-(4-(5-(3-methyl-1H-pyrrolo[2,3-b]pyridin-4-yl)pyridin-3-yl)phenyl)pyrrolidin-2-one]

Further lines, the molecule ahead of its results:

Compound | IC50 [1] [nM] | IC50 [2] [nM]
Cc1c[nH]c2nccc(-c3cc(-c4ccc(N5CCCC5=O)cc4)cnc3N)c12 [Example 316, 1-(4-(6-amino-5-(3-methyl-1H-pyrrolo[2,3-b]pyridin-4-yl)pyridin-3-yl)phenyl)pyrrolidin-2-one] | 1000 to 2500 | 10 to 100
CNC(=O)c1[nH]c2nccc(-c3cncc(-c4ccc(N5CCCC5=O)cc4)c3)c2c1C [Example 313, N,3-dimethyl-4-(5-(4-(2-oxopyrrolidin-1-yl)phenyl)pyridin-3-yl)-1H-pyrrolo[2,3-b]pyridine-2-carboxamide] | 1000 to 2500 | 100 to 1000
CN(C)C(=O)c1ccc(-c2cc(-c3cnc4c(c3)c(-c3cccnc3)cn4C)cnc2N)nc1 [Example 121, 2′-amino-N,N-dimethyl-5′-(1-methyl-3-(pyridin-3-yl)-1H-pyrrolo[2,3-b]pyridin-5-yl)-[2,3′-bipyridine]-5-carboxamide] | 100 to 1000 | 100 to 1000
Nc1ccc(-c2cnc3ncc(-c4cncc(-c5ccc(N6CCCC6=O)cc5)c4)cn23)cn1 [Example 337, 1-(4-(5-(3-(6-aminopyridin-3-yl)imidazo[1,2-a]pyrimidin-6-yl)pyridin-3-yl)phenyl)pyrrolidin-2-one] | 5 to 100 | 100 to 1000
O=C(Nc1cccnc1)c1cc2c(-c3cncc(-c4ccc(N5CCCC5=O)cc4)c3)ccnc2[nH]1 [Example 328, 4-(5-(4-(2-oxopyrrolidin-1-yl)phenyl)pyridin-3-yl)-N-(pyridin-3-yl)-1H-pyrrolo[2,3-b]pyridine-2-carboxamide] | 2500 to 5000 | 10 to 100
O=C(NCc1nc2ccccc2[nH]1)c1cc2c(-c3cncc(-c4ccc(N5CCCC5=O)cc4)c3)ccnc2[nH]1 [Example 322, N-((1H-benzo[d]imidazol-2-yl)methyl)-4-(5-(4-(2-oxopyrrolidin-1-yl)phenyl)pyridin-3-yl)-1H-pyrrolo[2,3-b]pyridine-2-carboxamide] | 1000 to 2500 | 10 to 100
O=C(NCc1ncco1)c1cc2c(-c3cncc(-c4ccc(N5CCCC5=O)cc4)c3)ccnc2[nH]1 [Example 330, N-(oxazol-2-ylmethyl)-4-(5-(4-(2-oxopyrrolidin-1-yl)phenyl)pyridin-3-yl)-1H-pyrrolo[2,3-b]pyridine-2-carboxamide] | 100 to 1000 | 10 to 100
Cc1ccc2c(c1)OCCN2C(=O)c1cc2c(-c3cncc(-c4ccc(N5CCCC5=O)cc4)c3)ccnc2[nH]1 [Example 339, 1-(4-(5-(2-(7-methyl-3,4-dihydro-2H-benzo[b][1,4]oxazine-4-carbonyl)-1H-pyrrolo[2,3-b]pyridin-4-yl)pyridin-3-yl)phenyl)pyrrolidin-2-one] | 100 to 1000 | 100 to 1000
Cc1nc(CNC(=O)c2cc3c(-c4cncc(-c5ccc(N6CCCC6=O)cc5)c4)ccnc3[nH]2)oc1C [Example 390] | 5 to 100 | 10 to 100
O=C(COc1cccc2c1C(=O)N(C1CCC(=O)NC1=O)C2=O)NCCCCCCCCNC(=O)c1cc2c(-c3cncc(-c4ccc(N5CCCC5=O)cc4)c3)ccnc2[nH]1 (stereo not drawn) [Example 395, N-(8-(2-((2-(2,6-dioxopiperidin-3-yl)-1,3-dioxoisoindolin-4-yl)oxy)acetamido)octyl)-4-(5-(4-(2-oxopyrrolidin-1-yl)phenyl)pyridin-3-yl)-1H-pyrrolo[2,3-b]pyridine-2-carboxamide] | 1000 to 2500 | 100 to 1000
